Positions of bridges follow the written chain, without caps; N, C: chain ends. Residues, ends and D or L forms follow the SMILES beside them.
Key:
[1] = test system: Staphylococcus aureus (NCTC 10788); assay: Antimicrobial MIC assay, S. aureus; type: cell-based; conditions: 1 to 512 μM, MHB, 18 h, 37 °C, 6 replicates, absorbance 550 nm; data not shown
Experimental: (§1) Gram-negative bacteria Escherichia coli (NCTC 10418); Gram-positive bacteria Staphylococcus aureus (NCTC 10788) and pathogenic yeast Candida albicans (NCYC 1467) were used in minimum inhibitory concentration (MIC) assays to investigate the board antimicrobial activity ability of synthetic PE-BBI. Microorganisms involved in MIC assays were cultured in MHB for 16–18 h. Then sub-cultured for 2~4 h to allow the microorganism to enter the logarithmic growth phase. Subsequently, proper density of bacterial (1 × 10^6 colony forming units (cfu)/mL) and fungi (1 × 10^5 cfu/mL) were seeded into 96 well plate. Different concentration ranged from 1 to 512 μM of PE-BBI were added into each well (6 replicates per concentration). The absorbance value at 550 nm was detected using a Synergy HT plate reader (Biotech, Minneapolis, MN, USA) after 18 h incubation in 37 °C incubator[50].

[2] = molecular target: T1, trypsin from bovine pancreas (Bos taurus, UniProt P00760); assay: Trypsin inhibitory assay; type: biochemical
T1 construct: purchased Sigma/Aldrich, Poole, Dorset, UK; host or cells: bovine pancreas
T1 sequence (P00760 24-246): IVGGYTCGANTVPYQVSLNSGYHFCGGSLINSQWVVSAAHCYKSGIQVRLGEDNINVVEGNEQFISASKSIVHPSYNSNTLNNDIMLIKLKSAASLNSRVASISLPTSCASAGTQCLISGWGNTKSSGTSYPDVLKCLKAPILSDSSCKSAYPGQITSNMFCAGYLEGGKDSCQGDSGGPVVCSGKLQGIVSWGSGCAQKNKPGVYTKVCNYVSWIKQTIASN

[3] = test system: Escherichia coli (NCTC 10418); assay: Antimicrobial MIC assay, E. coli; type: cell-based; conditions: 1 to 512 μM, MHB, 18 h, 37 °C, 6 replicates, absorbance 550 nm; data not shown
Experimental: as §1

[4] = test system: Candida albicans (NCYC 1467); assay: Antimicrobial MIC assay, C. albicans; type: cell-based; conditions: 1 to 512 μM, MHB, 18 h, 37 °C, 6 replicates, absorbance 550 nm; data not shown
Experimental: as §1

[5] = test system: rat-tail artery smooth muscle; design: species or system rat (female Wistar)
Experimental: Female Wistar rats (250–300 g) were applied in this study and sacrificed followed the principle of institutional animal experimentation ethics and UK animal research guidelines. All of the procedures involved in this study was approved by IACUC of Queen’s University Belfast. Rat-tail artery and bladder were isolated and located in pre-chilled Kreb’s solution equilibrated with 95% O2, 5% CO2[51]. Isolated muscle strips (2–10 mm) were vertically suspended in a 2 mL organ bath containing 37 °C Kreb’s solution. The Kreb’s solution was constant refreshing by constant flowing (2 mL/min) during the assay. Potassium chloride (KCL, 60 mM) was used to test for viability of muscle strips after 20 min equilibration. After the smooth muscle strip were prepared, the synthetic replicates of PE-BBI (10^−11 to 10^−5 M) was used to quantify the myogenic potency on rat-tail artery and bladder smooth muscle. Between each concentration, the smooth muscle strip was washed 5 mins and re-equilibration for another 5 min. Each data point was repeated on at least five independent muscle strips. The tension change was amplified and recorded by a PowerLab System (AD Instruments Pty Ltd.)[51].

## CC[C@H](C)[C@@H]1NC(=O)[C@H](CO)NC(=O)[C@H](CCCCN)NC(=O)[C@H]([C@@H](C)O)NC(=O)[C@H](Cc2c[nH]c3ccccc23)NC(=O)[C@@H](NC(=O)CNC(=O)[C@H](CCCCN)NC(=O)[C@H](CC(C)C)NC(=O)[C@H](C)NC(=O)CN)CSSC[C@@H](C(=O)N[C@@H](CCCCN)C(N)=O)NC(=O)[C@@H]2CCCN2C(=O)[C@H](CCCCN)NC(=O)[C@@H]2CCCN2C(=O)[C@@H]2CCCN2C1=O [PE-BBI] (H-GALKGCWTKSIPPKPCK-NH2; disulfide 6-16; N-terminus assumed)
[1]
  antimicrobial activity (MIC), S. aureus: didn’t show any obviously antibacterial activity even in the highest concentration (512 μM)
[2]
  Ki: 0.31 ± 0.072 µM
[2]; PE-BBI 0.1–100 µM
  mode of trypsin inhibition: competitive reversible trypsin inhibitory activity
[3]
  antimicrobial activity (MIC), E. coli: didn’t show any obviously antibacterial activity even in the highest concentration (512 μM)
[4]
  antimicrobial activity (MIC), C. albicans: didn’t show any obviously antibacterial activity even in the highest concentration (512 μM)
[5]
  EC50: 0.00879 µM
